Consider one compound from patent US10342804B2, “Steroid compound for use in the treatment of hepatic encephalopathy” (Umecrine Cognition AB, priority 2014, dated 2019).

The target in assay [1] is T1, human α1β2γ2L GABAA receptors (Homo sapiens, UniProt P14867+P47870).
T1 construct: expressed in transfected cells; host or cells: HEK-293, permanently transfected
Put plainly: Whole-cell voltage-clamp electrophysiology, HEK-293 cells expressing α1β2γ2L GABAA receptors. The class given is cell-based. To be noted: α1β2γ2L expressing cells. The procedure:
(§1) For electrophysiology measurements the Dynaflow® system with the Resolve chip was used (Cellectricon, Göteborg, Sweden). HEK-293 cells were permanently transfected with vectors including the human CMV promoter for constitutive expression of the human α5, β3, and γ2L GABAA receptor subunits (α5β3γ2L) or the human α1, β2, and γ2L GABAA receptor subunits (α1β2γ2L). The cell lines used were selected for good reactivity to GABA and to THDOC. Before measurements cells were incubated for 15 min at 37° C. in 95% air+5% CO2 in extracellular solution (EC) containing the following: 137 mM NaCl, 5.0 mM KCl, 1.0 mM CaCl2, 1.2 mM MgCl2, 10 mM HEPES, and 10 mM glucose, 0.1% DMSO pH 7.4. Thereafter, detached cells were added to the EC solution in the Dynaflow chip bath.
(§2) Whole-cell voltage-clamp recordings were made at room temperature (21-23° C., −17 mV with compensation for liquid junction potential as in Haage et al., 2002; Neher, 1992). Command pulses were generate and data collected by PClamp 9.0 software, DigiData 1322A converter, and AxonPatch 200B (Axon Instruments, Foster City, Calif.). Patch electrodes (2-6 MΩ) were filled with intracellular solution (IC) including: 140 mM Cs-gluconate, 3.0 mM NaCl, 1.2 mM MgCl2, 10 mM HEPES, 1.0 mM EGTA, 2 mM Mg-ATP, 0.1% DMSO, pH 7.2.
(§3) THDOC and 3α-ethynyl-3β-hydroxyandrostan-17-one oxime were dissolved in dimethyl sulfoxide (DMSO) and thereafter diluted with EC solution to include 0.1% DMSO.
(§4) Different protocols were used for different electrophysiology measurements. As α1β2γ2L-GABAA receptors in vivo are present within the synapse a condition resembling that situation, a short application (40 ms) of a high GABA concentration (30 μM), was used. Contrary, α5β3γ2L-GABAA receptors are present extrasynaptically, thus the conditions used were long exposures (6 s) to a low GABA concentration (0.3 μM). The EC75 concentration of THDOC was used, i.e. 100 nM with studies of α1β2γ2L and 200 nM when α5β3γ2L expressing cells were evaluated. With both cell types a pre-exposure with THDOC or THDOC plus 3α-ethynyl-3β-hydroxyandrostan-17-one oxime was used before application of GABA.
(§5) Steroid effects in presence of GABA were normalized to controls in order to avoid the effects of inter- and intracellular variation in the measured parameters, each cell was used as its own control and the area under the curve (AUC) was analyzed.

Assay [2] has as its target T2, human α5β3γ2L GABAA receptors (Homo sapiens, UniProt P28472+P31644).
T2 construct: expressed in transfected cells; host or cells: HEK-293, permanently transfected
Kind of assay: Whole-cell voltage-clamp electrophysiology, HEK-293 cells expressing α5β3γ2L GABAA receptors. The assay is classed as cell-based. Conditions: α5β3γ2L expressing cells. On the procedure: as §1, §2, §3, §4, §5

T2 sequence (P31644 32-462): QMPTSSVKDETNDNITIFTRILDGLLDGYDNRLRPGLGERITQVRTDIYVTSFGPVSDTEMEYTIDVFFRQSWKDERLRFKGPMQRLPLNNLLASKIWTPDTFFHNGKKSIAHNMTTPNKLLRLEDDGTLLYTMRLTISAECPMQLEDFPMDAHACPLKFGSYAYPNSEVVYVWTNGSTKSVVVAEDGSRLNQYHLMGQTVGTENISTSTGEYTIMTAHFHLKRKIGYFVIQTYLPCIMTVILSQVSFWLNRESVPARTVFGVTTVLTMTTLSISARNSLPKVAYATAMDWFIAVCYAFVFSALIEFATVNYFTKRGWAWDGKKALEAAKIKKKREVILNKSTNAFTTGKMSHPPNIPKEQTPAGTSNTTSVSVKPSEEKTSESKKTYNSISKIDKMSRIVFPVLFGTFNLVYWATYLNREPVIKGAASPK
T2 sequence (P28472 26-473): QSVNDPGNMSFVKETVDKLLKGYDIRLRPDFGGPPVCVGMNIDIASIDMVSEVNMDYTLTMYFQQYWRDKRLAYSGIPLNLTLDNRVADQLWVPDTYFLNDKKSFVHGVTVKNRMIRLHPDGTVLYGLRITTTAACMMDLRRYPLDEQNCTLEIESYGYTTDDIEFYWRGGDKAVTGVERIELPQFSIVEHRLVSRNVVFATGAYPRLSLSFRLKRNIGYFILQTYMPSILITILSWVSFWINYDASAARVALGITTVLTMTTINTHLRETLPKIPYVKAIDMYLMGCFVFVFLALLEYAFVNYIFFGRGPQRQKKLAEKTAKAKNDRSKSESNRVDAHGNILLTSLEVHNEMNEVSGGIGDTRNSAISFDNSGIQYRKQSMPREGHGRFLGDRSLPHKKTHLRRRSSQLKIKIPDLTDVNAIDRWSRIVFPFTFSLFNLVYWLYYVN
T2 sequence (P18507 40-475 partner): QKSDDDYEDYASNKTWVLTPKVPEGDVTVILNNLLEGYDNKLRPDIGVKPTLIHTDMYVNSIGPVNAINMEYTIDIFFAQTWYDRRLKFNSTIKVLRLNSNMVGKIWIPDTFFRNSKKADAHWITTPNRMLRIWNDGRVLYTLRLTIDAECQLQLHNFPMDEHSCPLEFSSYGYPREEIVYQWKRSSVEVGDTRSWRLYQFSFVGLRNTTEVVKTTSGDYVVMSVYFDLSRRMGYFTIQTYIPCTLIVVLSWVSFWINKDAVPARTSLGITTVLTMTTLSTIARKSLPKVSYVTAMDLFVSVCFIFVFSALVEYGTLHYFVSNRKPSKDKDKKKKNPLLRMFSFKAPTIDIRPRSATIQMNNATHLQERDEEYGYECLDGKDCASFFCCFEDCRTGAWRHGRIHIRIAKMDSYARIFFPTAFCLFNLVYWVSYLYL
T1 sequence (P14867 28-456): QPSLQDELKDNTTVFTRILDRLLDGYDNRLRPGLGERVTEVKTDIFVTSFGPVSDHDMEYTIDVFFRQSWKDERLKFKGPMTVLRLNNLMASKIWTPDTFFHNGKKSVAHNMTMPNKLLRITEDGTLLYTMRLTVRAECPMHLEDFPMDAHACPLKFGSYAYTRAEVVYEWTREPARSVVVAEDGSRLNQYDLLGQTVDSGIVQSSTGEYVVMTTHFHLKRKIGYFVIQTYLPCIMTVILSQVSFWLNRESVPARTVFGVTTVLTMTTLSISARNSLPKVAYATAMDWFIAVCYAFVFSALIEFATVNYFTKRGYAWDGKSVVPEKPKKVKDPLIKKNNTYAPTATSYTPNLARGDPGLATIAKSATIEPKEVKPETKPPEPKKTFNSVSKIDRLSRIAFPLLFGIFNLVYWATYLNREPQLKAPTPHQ
T1 sequence (P47870 25-512 limits assumed): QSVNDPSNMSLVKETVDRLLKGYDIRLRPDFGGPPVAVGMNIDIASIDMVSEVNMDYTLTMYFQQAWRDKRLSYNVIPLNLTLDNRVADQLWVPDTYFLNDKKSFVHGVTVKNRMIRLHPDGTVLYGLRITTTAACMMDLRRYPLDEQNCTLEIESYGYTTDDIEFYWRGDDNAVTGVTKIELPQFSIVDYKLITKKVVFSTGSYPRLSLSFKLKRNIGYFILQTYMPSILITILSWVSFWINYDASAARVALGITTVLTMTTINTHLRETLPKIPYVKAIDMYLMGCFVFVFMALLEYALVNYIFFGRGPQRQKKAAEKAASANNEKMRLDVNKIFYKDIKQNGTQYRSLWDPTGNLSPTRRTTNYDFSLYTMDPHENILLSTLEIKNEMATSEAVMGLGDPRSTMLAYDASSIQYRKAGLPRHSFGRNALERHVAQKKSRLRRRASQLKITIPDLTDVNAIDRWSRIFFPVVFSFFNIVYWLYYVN
T1 sequence (P18507 40-475 partner): as the sequence (P18507 40-475 partner) above

Take `C[C@]12CC[C@@H](O)C[C@H]1CC[C@@H]1[C@@H]2CC[C@]2(C)[C@@H](C(=O)CO)CC[C@@H]12` [THDOC, tetrahydrodeoxycorticosterone, reference compound]: the results for the “EC75 concentration of THDOC” value in assay [1] and in assay [2] were 100 nM and 200 nM, respectively.
